The values below are quoted from earlier work in patent publication US20040097484A1 (priority 2002, published 2004).

SMILES strings stand for the structures.

The conditions of the data set: in vivo.

Regarding `COc1ccc2c3c1O[C@H]1C[C@@H](O)C=C[C@@]31CCN(C)C2` [galantamine, 4a, 5,9, 10, 11, 12-hexahydro-3-methoxy-11-methyl-6H-benzofuro [3a, 3,2-e][2] benzazepin-6-ol], the “effective plasma concentration duration (sufficient elimination half-life)” value was “at least 4 hours”.
